ChEMBL document CHEMBL1201862, “PubChem BioAssay data set” (2004)
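Interpolation was linear, between the two tested concentrations surrounding the appropriate level; five concentrations were tested over 48 hours in 96-well plates. The concentration for 50% growth inhibition is given as GI50.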 Calls of active or inactive are those of the source. No stated cut-off is given here; in the data, active = GI50 up to about 1.1 µM and inactive = higher.

Experiments:
Assay in all cases: NCI-60 cell line screen, 48 h
ACHN = tested on: ACHN
RXF 393 = tested on: RXF 393
M14 = tested on: M14
HT-29 = tested on: HT-29
COLO 205 = tested on: COLO 205
SN12C = tested on: SN12C
MDA-MB-231 = tested on: MDA-MB-231
SK-MEL-5 = tested on: SK-MEL-5
HOP-92 = tested on: HOP-92
NCI-H460 = tested on: NCI-H460
Malme-3M = tested on: Malme-3M
U-251 = tested on: U-251
OVCAR-8 = tested on: OVCAR-8
BT-549 = tested on: BT-549
EKVX = tested on: EKVX
NCI/ADR-RES = tested on: NCI/ADR-RES
UO-31 = tested on: UO-31
K562 = tested on: K562
MCF7 = tested on: MCF7
SF-539 = tested on: SF-539

SMILES	GI50 (ACHN)	GI50 (RXF 393)	GI50 (M14)	GI50 (HT-29)	GI50 (COLO 205)	GI50 (SN12C)	GI50 (MDA-MB-231)	GI50 (SK-MEL-5)	GI50 (HOP-92)	GI50 (NCI-H460)	GI50 (Malme-3M)	GI50 (U-251)	GI50 (OVCAR-8)	GI50 (BT-549)	GI50 (EKVX)	GI50 (NCI/ADR-RES)	GI50 (UO-31)	GI50 (K562)	GI50 (MCF7)	GI50 (SF-539)
Cn1c2ccccc2n2c3ncccc3c(=O)c(C#N)c12	3.09 µM (inactive)	16.9 µM (inactive)	32.3 µM (inactive)	5.51 µM (inactive)	3.91 µM (inactive)	8.49 µM (inactive)	17.9 µM (inactive)	4.45 µM (inactive)	19.5 µM (inactive)	2.46 µM (inactive)	6.04 µM (inactive)	6.38 µM (inactive)	5.27 µM (inactive)	16.5 µM (inactive)	32.8 µM (inactive)	16.3 µM (inactive)	5.62 µM (inactive)	> 100 µM (inactive)	3.81 µM (inactive)	
C#CC(O)/C=C/CCCCCCC#CC/C=C\CC#CCCCCCC/C=C/C(O)C#C (stereo not given)	3.9 µM (inactive)	14.1 µM (inactive)	1.03 µM (active)	2.06 µM (inactive)	2 µM (inactive)	1.66 µM (inactive)	2.99 µM (inactive)	1.44 µM (inactive)	2.4 µM (inactive)	4.35 µM (inactive)		12.4 µM (inactive)	3.03 µM (inactive)	2.86 µM (inactive)	2.3 µM (inactive)	2.55 µM (inactive)	0.264 µM (active)	2.05 µM (inactive)	10.8 µM (inactive)	24.5 µM (inactive)
CCc1nn(CN2CCN(C)CC2)c(=S)n1/N=C\c1ccc(-c2ccc([N+](=O)[O-])cc2)o1	36.9 µM (inactive)	26.8 µM (inactive)	80.4 µM (inactive)	> 100 µM (inactive)		58.2 µM (inactive)	39.1 µM (inactive)	40.5 µM (inactive)	30.4 µM (inactive)	57.4 µM (inactive)	42 µM (inactive)	43.6 µM (inactive)	35.5 µM (inactive)	37 µM (inactive)	43.4 µM (inactive)	25.9 µM (inactive)	56.6 µM (inactive)	40 µM (inactive)	40.5 µM (inactive)	
N#CC(C#N)=CNC(=S)c1ccncc1	34.8 µM (inactive)	> 100 µM (inactive)	> 100 µM (inactive)	46.9 µM (inactive)	45.1 µM (inactive)	87.5 µM (inactive)	> 100 µM (inactive)	48.4 µM (inactive)		> 100 µM (inactive)	> 100 µM (inactive)	> 100 µM (inactive)	> 100 µM (inactive)	11.2 µM (inactive)	> 100 µM (inactive)	> 100 µM (inactive)	5.6 µM (inactive)	39.1 µM (inactive)	76.9 µM (inactive)	23.1 µM (inactive)
NC(CSCc1ccc(I)cc1)C(=O)O (stereo not given)	> 100 µM (inactive)	> 100 µM (inactive)	> 100 µM (inactive)	> 100 µM (inactive)	> 100 µM (inactive)	> 100 µM (inactive)	> 100 µM (inactive)	> 100 µM (inactive)	> 100 µM (inactive)	> 100 µM (inactive)	> 100 µM (inactive)	> 100 µM (inactive)	> 100 µM (inactive)	> 100 µM (inactive)	> 100 µM (inactive)	> 100 µM (inactive)	> 100 µM (inactive)	> 100 µM (inactive)	> 100 µM (inactive)	
CC(C)(C)OC(=O)NCCNC(=O)CN(CC(=O)O)C1CCCCC1N(CC(=O)O)CC(=O)O (stereo not given)	> 100 µM (inactive)	> 100 µM (inactive)	> 100 µM (inactive)	> 100 µM (inactive)	> 100 µM (inactive)	> 100 µM (inactive)	> 100 µM (inactive)	> 100 µM (inactive)	> 100 µM (inactive)	> 100 µM (inactive)	> 100 µM (inactive)	> 100 µM (inactive)	> 100 µM (inactive)	> 100 µM (inactive)		> 100 µM (inactive)	> 100 µM (inactive)	> 100 µM (inactive)	> 100 µM (inactive)	> 100 µM (inactive)
COc1ccc(OC)c(N2C(=O)/C(=C\c3ccccc3)SC2c2cc(OC)c(OC)c(OC)c2)c1 (stereo not given)	1.09 µM (active)	11.6 µM (inactive)	> 100 µM (inactive)	> 87.3 µM (inactive)	> 91.6 µM (inactive)	> 100 µM (inactive)	> 100 µM (inactive)	> 91.6 µM (inactive)	17.5 µM (inactive)		> 100 µM (inactive)	> 100 µM (inactive)	> 100 µM (inactive)	68.4 µM (inactive)	> 83.6 µM (inactive)	> 71.3 µM (inactive)	> 89.7 µM (inactive)	50.9 µM (inactive)	3.24 µM (inactive)	
O=C1c2ccccc2C(O)(O)C1(O)C1(O)C(=O)c2ccccc2C1(O)O (stereo not given)	21.3 µM (inactive)	26.6 µM (inactive)	35 µM (inactive)	> 100 µM (inactive)	20.7 µM (inactive)	16.1 µM (inactive)	> 100 µM (inactive)	20.1 µM (inactive)	37.6 µM (inactive)	18.8 µM (inactive)	22.1 µM (inactive)	37.2 µM (inactive)	35.9 µM (inactive)	55.6 µM (inactive)	36.3 µM (inactive)	69.7 µM (inactive)	19.6 µM (inactive)		16.8 µM (inactive)	24.2 µM (inactive)
